US10442835B2, “Water-soluble rapamycin derivatives” (Zhejiang Hisun Pharmaceutical Co., Ltd., priority 2016, dated 2019)
Values after ≈ are worked out from the molar mass of the structure shown. Where two headings read alike, the source gives them in different places.

Columns and labels:
prostate cancer cell PC3 = experiment: In vitro activity assay, growth of PC3; type: cell-based; conditions: 48 h
Source text: (§1) The anti-tumor activity and toxicity of the compounds according to the present invention can be assayed through standard operational procedures of pharmacological experiment. The experiments carried out herein can test the inhibitory effect of the compounds according to the present invention on the growth of human liver cancer cell HepG2, lung cancer cell NCI460, prostate cancer cell DU145, prostate cancer cell PC3, and human breast cancer cell MDA-MB-435. The operational procedure used is briefly described below by taking the inhibitory activity assay against human liver cancer cell HepG2 as an example.
(§2) The operational procedure for the assay is as follows:
(§3) 1. Cells after being trypsinized were inoculated in 96-well plates at a concentration of 10^4 cells/well, and allowed to grow in a medium with a final volume of 200 μL. The 96-well plates after inoculation are allowed to stand for 24 hours at 37° C., in order to allow the cells to adhere to the surface of the wells.
(§4) 2. The medium was removed by carefully pipetting without disturbing the cell monolayer. 200 μL Fresh medium was added into each well. It is arranged to make it possible to collect samples from enough wells to run the experiments in triplicate.
(§5) 3. The compounds to be tested according to the present invention were dissolved into 10 μL phosphate buffered solution (PBS) and incubated for 48 h at 37° C.
(§6) 4. In the last 6 h of incubation, cells in each well of the 96-well plates were labeled by 1 microcurie T thymidine (New England Nuclear thymidine), by adding 10 μL PBS containing 1 microcurie T thymidine (which was added into the PBS on the day of collecting the samples for test). The 96-well plates were then returned to the incubator and incubated for the last 6 h.
(§7) 5. Without disturbing the cell monolayer, the radioactive medium was removed by pipetting. Then 50 μL of BRL 10×trypsin was added to each well, followed by incubation at 37° C. for 10 minutes or until the cell monolayer was detached from the bottom (or the wall) of each well. Samples were collected on glass-fiber diskettes using a Skatron 96-well cell harvester. Cells depositing on the glass-fiber diskettes were counted in a Wallac Betaplate counter.

[1] = tested on: prostate cancer cell DU145; experiment: In vitro activity assay, growth of DU145; type: cell-based; conditions: Homo sapiens; DU-145; 48 h
Source text: as §1, §2, §3, §4, §5, §6, §7

[2] = tested on: human liver cancer cell HepG2; experiment: In vitro activity assay, growth of HepG2 (thymidine incorporation); type: cell-based; conditions: 48 h
Source text: as §1
Human liver cancer cell HepG2 grew in the follow medium:
Preparation of the growth medium: BRL minimum essential medium with Earle Salts (500 mL), with the addition of the following agents:
as §2, §3, §4, §5, §6, §7

[3] = Test for solubility in water; type: physicochemical; conditions: for solubility: water, thermodynamic from solid
Description: The experiments herein can measure the dissolution profile in water of the compounds according to the present invention.
To a 25 ml volumetric flask, 25 mg everolimus was added, and diluted with acetonitrile to volume. The mixture was shaken till all the solid dissolved, obtaining 1 mg/mL everolimus solution in acetonitrile.
1 mg/mL everolimus solution in acetonitrile was added to a 10 ml volumetric flask, and was diluted with acetonitrile by 2 times, 10 times, 100 times and 1000 times, so as to obtain everolimus solutions in acetonitrile with a concentration of 0.5 mg/mL, 0.1 mg/mL, 0.01 mg/mL and 0.001 mg/mL, respectively.
Each of the three mixtures was shaken till the solid in the volumetric flask stopped to dissolve. Before analyzed by HPLC, 1 mL of each solution was filtrated via a 0.22 μm filter. The solubility of the compounds was calculated from the standard curve using the peak area of the main peak obtained.
Based on the same study method, comparisons of the solubility between sirolimus/temsirolimus and the compounds modified by glutathione are carried out, respectively.

lung cancer cell NCI460 = experiment: In vitro activity assay, growth of NCI460; type: cell-based; conditions: NCI-460, 48 h
Source text: as §1, §2, §3, §4, §5, §6, §7

[4] = tested on: human breast cancer cell MDA-MB-435; experiment: In vitro activity assay, growth of MDA-MB-435; type: cell-based; conditions: 48 h
Source text: as §1, §2, §3, §4, §5, §6, §7

Q: Which IC50 (prostate cancer cell PC3) does the source give for `CO[C@H]1C[C@@H]2CC[C@@H](C)[C@@](O)(O2)C(=O)C(=O)N2CCCC[C@H]2C(=O)O[C@H]([C@H](C)C[C@@H]2CC[C@@H](OC(=O)C(C)(CO)CO)[C@H](OC)C2)CC(=O)[C@H](C)/C=C(\C)[C@@H](O)[C@@H](OC)C(=O)[C@H](C)C[C@H](C)/C=C/C=C/C=C/1C` [Temsirolimus, reference compound] here?
A: 47.319 ± 0.005 µM

Q: And the IC50 [1]?
A: 65.361 ± 0.015 µM

Q: What about the IC50 [2] of the same compound?
A: 60.337 ± 0.01 µM

Q: And the solubility ([3]; pure water, Table 2, compounds I-5, I-6, I-7 converted to temsirolimus, read-out: Solubility in water)?
A: ~1 µg/mL (≈ 0.971 µM)

Q: And the IC50 (lung cancer cell NCI460)?
A: 113.25 ± 0.011 µM

Q: And the IC50 [4]?
A: 77.31 ± 0.005 µM

Q: For `CO[C@H]1C[C@@H]2CC[C@@H](C)[C@@](O)(O2)C(=O)C(=O)N2CCCC[C@H]2C(=O)O[C@H]([C@H](C)C[C@@H]2CC[C@@H](O)[C@H](OC)C2)CC(=O)[C@H](C)/C=C(\C)[C@@H](O)[C@@H](OC)C(=O)[C@H](C)C[C@H](C)/C=C/C=C/C=C/1C` [Sirolimus, reference compound], which IC50 (prostate cancer cell PC3) is on record?
A: 42.371 ± 0.009 µM

Q: What about the IC50 [1] of the same compound?
A: 68.52 ± 0.009 µM

Q: What about the IC50 [2] of the same compound?
A: 66.254 ± 0.007 µM

Q: And the solubility [3]?
A: < 1 µg/mL

Q: What about the IC50 (lung cancer cell NCI460) of the same compound?
A: 101.36 ± 0.013 µM

Q: What about the IC50 [4] of the same compound?
A: 68.57 ± 0.007 µM

Q: Which results are given for `CO[C@H]1C[C@@H]2CC[C@@H](C)[C@@](O)(O2)C(=O)C(=O)N2CCCC[C@H]2C(=O)OC([C@H](C)C[C@@H]2CC[C@@H](OC(=O)CSC[C@H](NC(=O)CC[C@H](N)C(=O)O)C(=O)NCC(=O)O)[C@H](OC)C2)CC(=O)[C@H](C)/C=C(\C)[C@@H](O)[C@@H](OC)C(=O)[C@H](C)C[C@@H](C)\C=C/C=C/C=C/1C` (stereo partly shown) [Compound I-3]?
A: IC50 (prostate cancer cell PC3): 31.396 ± 0.008 µM; IC50 [1]: 62.511 ± 0.01 µM; IC50 [2]: 35.188 ± 0.007 µM; increase of solubility in water as compared with sirolimus [3]: at least 470 times; solubility [3]: 470 µg/mL (≈ 373 µM); IC50 (lung cancer cell NCI460): 82.328 ± 0.011 µM; IC50 [4]: 63.633 ± 0.015 µM

Q: For `CO[C@H]1C[C@@H]2CC[C@@H](C)[C@@](O)(O2)C(=O)C(=O)N2CCCC[C@H]2C(=O)OC([C@H](C)C[C@@H]2CC[C@@H](OC(=O)C(C)(CO)COC(=O)CSC[C@H](NC(=O)CC[C@H](N)C(=O)O)C(=O)NCC(=O)O)[C@H](OC)C2)CC(=O)[C@H](C)/C=C(\C)[C@@H](O)[C@@H](OC)C(=O)[C@H](C)C[C@@H](C)\C=C/C=C/C=C/1C` (stereo partly shown) [Compound I-5], which IC50 (prostate cancer cell PC3) is on record?
A: 38.396 ± 0.008 µM

Q: What about the IC50 [1] of the same compound?
A: 60.813 ± 0.011 µM

Q: And the IC50 [2]?
A: 50.213 ± 0.01 µM

Q: What about the “increase of solubility in water as compared with temsirolimus” value [3] of the same compound?
A: at least 580 times

Q: What about the solubility [3] of the same compound?
A: 580 µg/mL (≈ 421 µM)

Q: What about the IC50 (lung cancer cell NCI460) of the same compound?
A: 80.53 ± 0.013 µM

Q: And the IC50 [4]?
A: 70.761 ± 0.009 µM

Q: Which results are given for `CO[C@H]1C[C@@H]2CC[C@@H](C)[C@@](O)(O2)C(=O)C(=O)N2CCCC[C@H]2C(=O)OC([C@H](C)C[C@@H]2CC[C@@H](OC(=O)CSC[C@H](NC(=O)CC[C@H](N)C(=O)O)C(=O)NCC(=O)O)[C@H](OC)C2)CC(=O)[C@H](C)/C=C(\C)[C@@H](OC(=O)CSC[C@H](NC(=O)CC[C@H](N)C(=O)O)C(=O)NCC(=O)O)[C@@H](OC)C(=O)[C@H](C)C[C@@H](C)\C=C/C=C/C=C/1C` (stereo partly shown) [Compound I-4]?
A: IC50 (prostate cancer cell PC3): 51.413 ± 0.005 µM; IC50 [1]: 93.277 ± 0.011 µM; IC50 [2]: 73.402 ± 0.007 µM; increase of solubility in water as compared with sirolimus [3]: ≥ 610 times; solubility [3]: 610 µg/mL (≈ 379 µM); IC50 (lung cancer cell NCI460): 122.8 ± 0.017 µM; IC50 [4]: 73.283 ± 0.012 µM

Q: With `CO[C@H]1C[C@@H]2CC[C@@H](C)[C@@](O)(O2)C(=O)C(=O)N2CCCC[C@H]2C(=O)OC([C@H](C)C[C@@H]2CC[C@@H](OC(=O)C(C)(COC(=O)CSC[C@H](NC(=O)CC[C@H](N)C(=O)O)C(=O)NCC(=O)O)COC(=O)CSC[C@H](NC(=O)CC[C@H](N)C(=O)O)C(=O)NCC(=O)O)[C@H](OC)C2)CC(=O)[C@H](C)/C=C(\C)[C@@H](OC(=O)CSC[C@H](NC(=O)CC[C@H](N)C(=O)O)C(=O)NCC(=O)O)[C@@H](OC)C(=O)[C@H](C)C[C@@H](C)\C=C/C=C/C=C/1C` (stereo partly shown) [Compound I-7] as the compound, how does the IC50 (prostate cancer cell PC3) read?
A: 60.492 ± 0.01 µM

Q: And the IC50 [1]?
A: 82.51 ± 0.015 µM

Q: And the IC50 [2]?
A: 76.703 ± 0.012 µM

Q: What about the “increase of solubility in water as compared with temsirolimus” value [3] of the same compound?
A: ≥ 830 times

Q: What about the solubility [3] of the same compound?
A: 830 µg/mL (≈ 401 µM)

Q: What about the IC50 (lung cancer cell NCI460) of the same compound?
A: 131.26 ± 0.01 µM

Q: And the IC50 [4]?
A: 81.31 ± 0.008 µM
